# In patent publication US20240245677A1, “SELECTED COMPOUNDS FOR TARGETED DEGRADATION OF BRD9” (C4 THERAPEUTICS, INC., priority 2021, published 2024):
# Key:
# [1] = Compression and ball-milling experiments; format: physicochemical; conditions: for behavior under ball milling: ball milling for 5 min; for behavior under compression: 2 to 10 MPa
# Protocol: Feasibility of formulation processes was evaluated with compression and ball-milling experiments. […] However, the hydrate Form N is sensitive to pressure.
# [2] = Bulk stability study (1 week stress conditions; drying); conditions: for physical and chemical stability: 25° C./92% RH open vial, 40° C./75% RH open vial or 60° C. closed vial, 1 week
# [3] = Hygroscopicity by DVS at 25° C.; format: physicochemical; conditions: DVS 25° C.
# Protocol: Hygroscopicity of Form A and Form N was investigated by DVS at 25° C. […] Form A converted to Form K after the DVS test. Form K is a metastable hydrate. It reverted back to Form A after exposure to ambient condition.
# Hygroscopicity of the free base Pattern A* and the urea cocrystal Form P were evaluated by DVS at 25° C.
# [4] = Variable humidity XRPD (VH-XRPD) experiments; format: physicochemical; conditions: listed as Pattern N
# Protocol: Based on DVS results, variable humidity XRPD was conducted for Pattern A at different humidity conditions, including 40%, 70%, 90%, 70%, 40%, 20%, 0%, 40% RH conditions.
# Based on DVS results, variable humidity XRPD was conducted for Pattern N, at different humidity conditions, including 40%, 70%, 90%, 70%, 40%, 20%, 0%, 40% RH conditions.
# [5] = Equilibration under a temperature cycle (XRPD); format: physicochemical
# Protocol: (§1) Obtained suspension was filtered through a 0.45 μm nylon membrane filter by centrifugation at 14,000 rpm for 5 min. Solid parts (wet cakes) were investigated by XRPD immediately. For samples with different XRPD results, additional analysis including HPLC, DSC, TGA, ^1H-NMR and KF was performed. Some samples with Form K were exposure to ambient condition and investigated by XRPD again.
# [6] = Approximate solubility in solvents at 25° C. and 50° C. (visual observation); format: physicochemical; conditions: for Solubility (mg/mL), 25° C.: target conc. = 250 mg/mL; for Solubility (mg/mL), 50° C.: target conc. = 500 mg/mL
# Protocol: Max. volume of each solvent added was 1 mL. Approximate solubility was determined by visual observation.
# Max volume of each solvent added was 1 mL. Approximate solubility was determined by visual observation.
# [7] = Equilibration with solvents at 50° C. for 1 week (XRPD); format: physicochemical
# Protocol: as §1, with “The obtained” for “Obtained”
# [8] = Equilibration with solvents at 25° C. for 2 weeks (XRPD); format: physicochemical
# Protocol: Obtained suspension was filtered through a 0.45 μm nylon membrane filter by centrifugation at 14,000 rpm for 5 min. Solid parts (wet cakes) were investigated by XRPD immediately. Some samples with Form K were exposure to ambient condition and investigated by XRPD again.
# [9] = Competitive equilibration experiment at 25° C.; format: physicochemical; conditions: 7 days
# Protocol: Competitive equilibration experiments were conducted at 25° C. to investigate the thermodynamically stable anhydrate. 5 mg of Pattern G, and 5 mg of Pattern H, were added to about 200 μL of saturated solution in selected solvents. Obtained suspension was stirred at 25° C. for 7 days. Obtained suspensions were centrifuged and obtained solids were analyzed by XRPD immediately.
structure (smiles),measurement,setting,value
COc1cc(-c2cn(C)c(=O)c(C)c2C)cc(OC)c1CN1CC[C@H](N2CCN(c3ccc(N[C@H]4CCC(=O)NC4=O)cc3F)CC2)C(F)(F)C1 [Form A],behavior under ball milling,[1],no obvious crystallinity decrease
same,behavior under compression,[1],no form change and no obvious crystallinity decrease even under 10 MPa
same,physical and chemical stability,[2],physically and chemically stable
same,water uptake,[3]; from 40% RH to 70% RH,about 2.0%
COc1cc(-c2cn(C)c(=O)c(C)c2C)cc(OC)c1CN1CC[C@H](N2CCN(c3ccc(N[C@H]4CCC(=O)NC4=O)cc3F)CC2)C(F)(F)C1 [Form N],XRPD,[4]; 0% RH,Pattern N
same,XRPD,[4]; 20% RH,Pattern N
same,XRPD,"[4]; 40% RH (after 90% RH, falling)",Pattern N
same,XRPD,[4]; 40% RH (first step),Pattern N
same,XRPD,"[4]; 40% RH (last step, after 0% RH)",Pattern N
same,XRPD,[4]; 70% RH (after 90% RH),Pattern N
same,XRPD,[4]; 70% RH (humidity rising),Pattern N
same,XRPD,[4]; 90% RH,Pattern N
same,behavior under ball milling,[1],no obvious crystallinity decrease
same,behavior under compression,[1],crystallinity decrease even compressed under 2 MPa
same,physical and chemical stability,[2],physically and chemically stable
same,form change and degradation after drying,[2]; 50° C. under vacuum for 2 days,No form change and no degradation
same,water uptake,[3]; from 40% RH to 80% RH,about 1.0%
COc1cc(-c2cn(C)c(=O)c(C)c2C)cc(OC)c1CN1CC[C@H](N2CCN(c3ccc(N[C@H]4CCC(=O)NC4=O)cc3F)CC2)C(F)(F)C1 [Pattern E],XRPD,"[5]; equilibration under a temperature cycle, 1,4-Dioxane/heptane (v:v = 1:1)",+Pattern B
same,XRPD,"[5]; equilibration under a temperature cycle, 2-MeTHF",+Pattern F
same,XRPD,"[5]; equilibration under a temperature cycle, Acetone",+Pattern B
same,XRPD,"[5]; equilibration under a temperature cycle, Acetone/water (v:v = 36:64)",+Pattern K
same,XRPD,"[5]; equilibration under a temperature cycle, Acetone/water (v:v = 76:24)",+Pattern A
same,XRPD,"[5]; equilibration under a temperature cycle, Acetone/water (v:v = 92:8)",+Pattern B
same,XRPD,"[5]; equilibration under a temperature cycle, Acetonitrile",+Pattern B
same,XRPD,"[5]; equilibration under a temperature cycle, DCM/heptane (v:v = 1:1)",+Pattern F
same,XRPD,"[5]; equilibration under a temperature cycle, DMSO/water (v:v = 64:36)",+Pattern F
same,XRPD,"[5]; equilibration under a temperature cycle, Ethanol",+Pattern F
same,XRPD,"[5]; equilibration under a temperature cycle, Ethyl acetate",+Pattern F
same,XRPD,"[5]; equilibration under a temperature cycle, Methanol",+Pattern B
same,XRPD,"[5]; equilibration under a temperature cycle, THF/heptane (v:v = 1:1)",+Pattern F
same,XRPD,"[5]; equilibration under a temperature cycle, Toluene",+Pattern A
same,"Solubility (mg/mL), 25° C.","[6]; 1,4-Dioxane",>250 mg/mL
same,"Solubility (mg/mL), 50° C.","[6]; 1,4-Dioxane",>500 mg/mL
same,"Solubility (mg/mL), 25° C.",[6]; 2-MeTHF,83 to 125 mg/mL
same,"Solubility (mg/mL), 50° C.",[6]; 2-MeTHF,250 to 500 mg/mL
same,"Solubility (mg/mL), 25° C.",[6]; Acetone,20 to 25 mg/mL
same,"Solubility (mg/mL), 50° C.",[6]; Acetone,100 to 200 mg/mL
same,"Solubility (mg/mL), 25° C.",[6]; Acetonitrile,5 to 6 mg/mL
same,"Solubility (mg/mL), 50° C.",[6]; Acetonitrile,<10 mg/mL
same,"Solubility (mg/mL), 25° C.",[6]; DCM,125 to 250 mg/mL
same,"Solubility (mg/mL), 25° C.",[6]; DMSO,>250 mg/mL
same,"Solubility (mg/mL), 50° C.",[6]; DMSO,>500 mg/mL
same,"Solubility (mg/mL), 25° C.",[6]; Ethanol,6 to 8 mg/mL
same,"Solubility (mg/mL), 50° C.",[6]; Ethanol,16 to 25 mg/mL
same,"Solubility (mg/mL), 25° C.",[6]; Ethyl acetate,6 to 8 mg/mL
same,"Solubility (mg/mL), 50° C.",[6]; Ethyl acetate,14 to 20 mg/mL
same,"Solubility (mg/mL), 25° C.",[6]; Heptane,<5 mg/mL
same,"Solubility (mg/mL), 50° C.",[6]; Heptane,<10 mg/mL
same,"Solubility (mg/mL), 25° C.",[6]; MTBE (Methyl tert-butyl ether),<5 mg/mL
same,"Solubility (mg/mL), 50° C.",[6]; MTBE,<10 mg/mL
same,"Solubility (mg/mL), 25° C.",[6]; Methanol,8 to 13 mg/mL
same,"Solubility (mg/mL), 50° C.",[6]; Methanol,18 to 22 mg/mL
same,"Solubility (mg/mL), 25° C.",[6]; Methanol/water (v:v = 95:5),8 to 13 mg/mL
same,"Solubility (mg/mL), 50° C.",[6]; Methanol/water (v:v = 95:5),14 to 20 mg/mL
same,"Solubility (mg/mL), 25° C.",[6]; THF (Tetrahydrofuran),>250 mg/mL
same,"Solubility (mg/mL), 50° C.",[6]; THF,>500 mg/mL
same,"Solubility (mg/mL), 25° C.",[6]; Toluene,<5 mg/mL
same,"Solubility (mg/mL), 50° C.",[6]; Toluene,<10 mg/mL
same,"Solubility (mg/mL), 25° C.",[6]; Water,<5 mg/mL
same,"Solubility (mg/mL), 50° C.",[6]; Water,<10 mg/mL
same,XRPD,"[7]; equilibration at 50° C. for 1 week, 1,4-Dioxane/heptane (v:v = 1:1)",+Pattern B
same,XRPD,"[7]; equilibration at 50° C. for 1 week, 2-MeTHF",+Pattern B
same,XRPD,"[7]; equilibration at 50° C. for 1 week, Acetone",+Pattern B
same,XRPD,"[7]; equilibration at 50° C. for 1 week, Acetone/water (v:v = 36:64) a.w. = 0.90",+Pattern K
same,XRPD,"[7]; equilibration at 50° C. for 1 week, Acetone/water (v:v = 76:24) a.w. = 0.71",+Pattern B
same,XRPD,"[7]; equilibration at 50° C. for 1 week, Acetone/water (v:v = 92:8) a.w. = 0.50",+Pattern B
same,XRPD,"[7]; equilibration at 50° C. for 1 week, Acetonitrile",+Pattern F
same,XRPD,"[7]; equilibration at 50° C. for 1 week, DMSO/water (v:v = 23:77) a.w. = 0.91",+Pattern K
same,XRPD,"[7]; equilibration at 50° C. for 1 week, DMSO/water (v:v = 64:36) a.w. = 0.53",+Pattern B
same,XRPD,"[7]; equilibration at 50° C. for 1 week, Ethanol",+Pattern F
same,XRPD,"[7]; equilibration at 50° C. for 1 week, Ethyl acetate",+Pattern F
same,XRPD,"[7]; equilibration at 50° C. for 1 week, THF/heptane (v:v = 1:1)",+Pattern B
same,XRPD,"[7]; equilibration at 50° C. for 1 week, Toluene",+Pattern G
same,XRPD after equilibration at 25° C. for 2 weeks,"[8]; 1,4-dioxane/heptane (v:v = 1:1)",+Pattern B
same,XRPD after equilibration at 25° C. for 2 weeks,[8]; 2-MeTHF,+Pattern B
same,XRPD after equilibration at 25° C. for 2 weeks,[8]; Acetone,+Pattern B
same,XRPD after equilibration at 25° C. for 2 weeks,[8]; Acetone/water (v:v = 36:64) a.w. = 0.90,+Pattern K
same,XRPD after equilibration at 25° C. for 2 weeks,[8]; Acetone/water (v:v = 76:24) a.w. = 0.70,+Pattern B
same,XRPD after equilibration at 25° C. for 2 weeks,[8]; Acetone/water (v:v = 92:8) a.w. = 0.50,+Pattern B
same,XRPD after equilibration at 25° C. for 2 weeks,[8]; Acetonitrile,+Pattern B
same,XRPD after equilibration at 25° C. for 2 weeks,[8]; DCM/heptane (v:v = 1:1),+Pattern F
same,XRPD after equilibration at 25° C. for 2 weeks,[8]; DMSO/water (v:v = 23:77) a.w. = 0.91,+Pattern K
same,XRPD after equilibration at 25° C. for 2 weeks,[8]; Ethanol,+Pattern A
same,XRPD after equilibration at 25° C. for 2 weeks,[8]; Ethyl acetate,+Pattern F
same,XRPD after equilibration at 25° C. for 2 weeks,[8]; Methanol,+Pattern K
same,XRPD after equilibration at 25° C. for 2 weeks,[8]; THF/heptane (v:v = 1:1),+Pattern B
same,XRPD after equilibration at 25° C. for 2 weeks,[8]; Toluene,+Pattern K
COc1cc(-c2cn(C)c(=O)c(C)c2C)cc(OC)c1CN1CC[C@H](N2CCN(c3ccc(N[C@H]4CCC(=O)NC4=O)cc3F)CC2)C(F)(F)C1 [Pattern G and Pattern H],XRPD after competitive equilibration at 25° C.,[9]; Acetone,Pattern B
same,XRPD after competitive equilibration at 25° C.,[9]; Ethanol,"Low crystallinity, difficult to differentiate"
same,XRPD after competitive equilibration at 25° C.,[9]; Ethyl acetate,Pattern F
same,XRPD after competitive equilibration at 25° C.,[9]; Toluene,Pattern G
